The source of these data is ChEMBL document CHEMBL6096667, “Design, synthesis and biological evaluation of biaryl amide derivatives as modulators of multi-drug resistance” (Eur J Med Chem, 2025).

The test system of experiment [1] is A2780/Taxol. Description: Inhibition of cell proliferation of human Paclitaxel-resistant A2780/T cells incubated for 48 hrs in presence of PTX by MTT assay. In kind it is functional, cell-based. A general note: Tetrazolium assays rely on reduction of a dye to a coloured formazan, in cell work by metabolically active cells.
The subject of experiment [2] is A2780/Taxol. Kind of experiment: Inhibition of cell proliferation of human Paclitaxel-resistant A2780/T cells at 0.01 uM incubated for 48 hrs in presence of PTX by MTT assay relative to control. The format is functional.
Experiment [3] deals with A2780/Taxol. Kind of experiment: Inhibition of cell proliferation of human Paclitaxel-resistant A2780/T cells at 0.1 uM incubated for 48 hrs in presence of PTX by MTT assay relative to control. The format is functional.
In experiment [4] the test system is A2780/Taxol. Kind of experiment: Inhibition of cell proliferation of human Paclitaxel-resistant A2780/T cells at 1 uM incubated for 48 hrs in presence of PTX by MTT assay relative to control. In kind it is functional.
The test system of experiment [5] is A2780/Taxol. Description: Inhibition of cell proliferation of human Paclitaxel-resistant A2780/T cells at 10 uM incubated for 48 hrs in presence of PTX by MTT assay relative to control. The format is functional.
The subject of experiment [6] is A2780/Taxol. Kind of experiment: Reversal of paclitaxel resistance in human Paclitaxel-resistant A2780/T cells assessed as reversal fold by measuring ratio of paclitaxel IC50 to paclitaxel IC50 in presence of test compound at 1 uM incubated for 48 hrs by MTT assay. The format is functional.

Each structure is given as a SMILES string. Where only a bound is given, the exact number is not on record here.

By IC50 is commonly meant the point on the concentration scale where inhibition reaches its midpoint. For orientation: inhibition means the drop in the measured response relative to a control, in per cent. Take `O=C(Nc1ccc(-c2ccccc2)cc1[N+](=O)[O-])c1cccnc1`: the IC50 in experiment [1] stood at 0.027 µM. Besides, the inhibition at 0.01 µM in experiment [2] came out at 48%. Besides, the inhibition at 0.1 µM in experiment [3] is 74%.
The like results for `O=C(Nc1nc(-c2ccccc2)co1)c1cccnc1` were, in that order, 10.1 µM, 11% and 30%.
The like results for `O=C(Nc1ncc(-c2ccccc2)cc1F)c1cccnc1` were, in that order, 0.32 µM, 11% and 50%.
The like results for `O=C(Nc1ccc(-c2ccccc2)nc1)c1cccnc1` were, in that order, 13.6 µM, 9% and 33%.
Consider `COc1ccc(CCN(C)CCCC(C#N)(c2ccc(OC)c(OC)c2)C(C)C)cc1OC` (centres undefined), for which the inhibition at 0.01 µM in experiment [2] was 22%. In experiment [3], the inhibition at 0.1 µM amounted to 47%. Moreover, the inhibition at 1 µM in experiment [4] was found to be 57%. The inhibition at 10 µM in experiment [5] came to 76%.
With `N#Cc1cc(-c2ccccc2)cnc1NC(=O)c1cccnc1`, the half-maximal inhibitory concentration (IC50) in experiment [1] stood at 0.08 µM. For the same molecule, the inhibition at 0.01 µM in experiment [2] came to 35%. In addition, the inhibition at 0.1 µM in experiment [3] amounted to 59%.
The like results for `O=C(Nc1ccc(-c2ccccc2)c([N+](=O)[O-])c1)c1cccnc1` were, in that order, 11.2 µM, 25% and 37%.
Regarding `Cn1cc(C(=O)NCc2ccc(-c3cccs3)cn2)c2ccccc21`, in experiment [1], the IC50 was > 50 µM. Moreover, the inhibition at 1 µM in experiment [4] was determined as 6%. The inhibition at 10 µM in experiment [5] was found to be 80%. The “Ratio IC50” value in experiment [6] stood at 47.
On to `Cn1cc(C(=O)NCc2ccc(-c3cnc4ccccc4c3)cn2)c2ccccc21`, for which the IC50 in experiment [1] is > 50 µM. Besides, the inhibition at 1 µM in experiment [4] came to 46%. Also, the inhibition at 10 µM in experiment [5] came out at 76%. In addition, the “Ratio IC50” value in experiment [6] came out at 9.
Take `O=C(Nc1ccc(-c2ccccc2)c2nonc12)c1cccnc1`: the IC50 in experiment [1] is 3.09 µM. Moreover, the inhibition at 0.01 µM in experiment [2] came out at 14%. Moreover, in experiment [3], the inhibition at 0.1 µM was 33%.
The like results for `O=C(Nc1ncc(-c2ccccc2)cc1O)c1cccnc1` were, in that order, 2.11 µM, 11% and 38%.
The like results for `O=C(Nc1ccc(-c2ccccc2)cc1OC(F)(F)F)c1cccnc1` were, in that order, 3.54 µM, 31% and 42%.
The like results for `O=C(Nc1ccc(-c2ccccc2)c2cccnc12)c1cccnc1` were, in that order, 33.2 µM, 6% and 39%.
Consider `O=C(Nc1ccc(-c2ccccc2)cc1)c1cccnc1`, for which, in experiment [1], the IC50 is 12.6 µM. In experiment [2], the inhibition at 0.01 µM was 29%. For the same molecule, the inhibition at 0.1 µM in experiment [3] came out at 37%.
The like results for `O=C(Nc1ccc(-c2ccccc2)c2ccccc12)c1cccnc1` were, in that order, 19 µM, 31% and 35%.
Take `COc1ccc(-c2ccc(CNC(=O)c3cn(C)c4ccccc34)nc2)c(OC)c1`: the IC50 in experiment [1] is > 50 µM. In experiment [4], the inhibition at 1 µM amounted to 36%. Further, the inhibition at 10 µM in experiment [5] stood at 80%. Besides, the “Ratio IC50” value in experiment [6] turned out to be 38.
As for `O=C(Nc1ccc(-c2ccccc2)c(F)c1F)c1cccnc1`, in experiment [1], the IC50 was determined as 0.78 µM. In experiment [2], the inhibition at 0.01 µM was 27%. Moreover, in experiment [3], the inhibition at 0.1 µM was found to be 46%.
The like results for `O=C(Nc1ccc(-c2ccccc2)cn1)c1cccnc1` were, in that order, 0.88 µM, 28% and 55%.
Consider `O=C(Nc1ncc(-c2ccccc2)cn1)c1cccnc1`, for which, in experiment [1], the IC50 was 0.11 µM. In experiment [2], the inhibition at 0.01 µM turned out to be 34%. For the same molecule, the inhibition at 0.1 µM in experiment [3] worked out at 49%.
The like results for `O=C(Nc1c(F)c(F)c(-c2ccccc2)c(F)c1F)c1cccnc1` were, in that order, 0.8 µM, 25% and 46%.
